One series deals with HeLa cells. The series can be described thus: Assay 4: protection of cells from tunicamycin stress (WST-8). The class given is cell-based, human. The note with it: Tunicamycin 2.5 μg/ml, 0.2-5 μM compound, 3 days. How it is done:
Cells were plated in 24-well plates at a density of 15,000 (HeLa) or 12,000 cells/ml (MEFs) 24 hours prior to treatment. ER stress was elicited by addition of fresh media containing 2.5 μg/ml tunicamycin (Sigma-Aldrich). Compounds of Example 1 were dissolved in DMSO and added as indicated. DMSO was used as a mock treatment. Cell viability was assessed by measuring the reduction of WST-8 [2-(2-methoxy-4-nitrophenyl)-3-(4-nitrophenyl)-5-(2,4-disulfophenyl)-2H-tetrazolium] into formazan using Cell viability Counting Kit-8 (Dojindo) according to the supplier's recommendation, […] after tunicamycin treatment.
Cells where stressed with Tunicamycin (2.5 μg/ml) in the presence of 0.2-5 μM of a compound of Example 1. Cell viability was measured 3 days after treatment.
Cytoprotection against ER stress can be measured by a suitable assay. In this instance, cytoprotection was measured in HeLa cells in which ER stress was elicited by the addition of media containing tunicamycin, a drug that blocks N-glycosylation, thereby preventing protein folding and inducing the unfolded protein response. Cell viability was then detected in the presence and absence of a compound of Example 1 after a set period of time, by measuring the reduction of WST-8 into formazan using the standard cell viability kit Cell Viability Counting Kit-8 from Dojindo. […]
In general terms: Formazan colour is commonly taken as a measure of viable cells.

Series [1] concerns eIF2α phosphorylation. As to the kind of experiment: Assay 2: eIF2α phosphorylation in cells in the absence of stress. The class given is cell-based. The conditions noted are these: human cells. How it is done: (§1) HeLa cells were cultured in Dulbecco's Modified Eagle's Media (DMEM) supplemented with penicillin, streptomycin, containing 5% and 10% fetal bovine serum (FBS), respectively. MEF cells were cultured in DMEM supplemented with penicillin, streptomycin, glutamine, 55 μM β-mercaptoethanol, 1× non-essential amino acids (Sigma-Adrich) and 10% FBS. Where indicated, cells were treated with 2.5 μg/ml tunicamycin, 1 mM DTT (Sigma-Adrich) and or the indicated compounds at the indicated concentrations.
(§2) For immunoblots, HeLa cells (80,000 cells/ml) were plated in 12-well plates 24 hours before each experiment. Immediately after the indicated treatments, cells were lysed in 75 μl Laemmli Buffer, boiled at 95° C. for 5 minutes and sonicated. Proteins were separated and analysed as described (Tsaytler et al., Science, 332, 91-94, 2011) with the following antibodies: phospho-elf2α [pS52] and PPP1R15A/GADD34 (10449-1-AP; ProteinTech Group, 1/1000 dilution) and ATF4 (Sc-200 Santa Cruz).
Human cells were treated with a PPP1R15B inhibitor and eIF2α phosphorylation was monitored over time. […] This was manifested between 1 and 7.5 hours after addition of the compound of Example 1. […] Indeed, the inventors noticed that PPP1R15A was induced at the late time points following addition of the compound of Example 1 (see Assay 3). […] Furthermore, this establishes that the compound of Example 1 spares PPP1R15A. […]

In a further series the test system is HD-N171-82Q mice. As to the kind of experiment: Huntington's disease mouse model, motor performance (rotarod). Format: in vivo. The note with it: 2 mg/kg oral daily, 4 weeks. As to the method:
To assess the efficacy of a compound of Example 1 in ameliorating a disease phenotype, 28-day old transgenic mice or littermate control were orally administered daily with a compound of Example 1 (2 mg/kg) or vehicle for a duration of 4 weeks. Disease progression was evaluated by weighting the mice during the treatment and by assessing their motor performances after 4 weeks of treatment.
Eight weeks old HD-N171-82Q mice and their wild-type littermates were first habituated for 1 min on a static rotor and 1 min at constant speed (4 rpm). Habituation was repeated. The test session consisted of four trials with 15 min intervals in between. For each trial 5 mice were placed on an accelerating rotor (4 to 40 rpm) and the latency to fall was recorded, with a maximum limit for individual animal set at 300 s.
Increasing folding by inhibition of PPP1R15B has the potential to benefit a very broad range of human pathologies. To test this, the inventors looked at Huntington's disease (HD), a proteostasis disease caused by accumulation of a misfolded protein, mutant Huntingtin. […] As HD has no cure to date, the inventors tested whether HD could be prevented by PPP1R15B inhibition.

The subject of a further series is PPP1R15A. The series can be described thus: Assay 3: expression of PPP1R15A in cells. The class given is cell-based, human. The conditions noted are these: late time points after addition, FIG. 2B. As to the method: as §2
Cells and organisms usually have mechanisms to compensate for deficiencies. The inventors therefore considered whether cells might compensate for PPP1R15B inhibition by inducing PPP1R15A. It has been previously reported that PPP1R15A levels are increased in the liver of PPP1R15B knock-out mice (Harding et al., Proc. Natl. Acad. Sci. U.S.A., 106, 1832-1837, 2009). It is unknown whether this compensatory response is specific to the liver or if it can happen in cells or other tissues. Furthermore, prior to this study, it was unknown whether PPP1R15A induction can be observed upon pharmacological inhibition of PPP1R15B, as they were no selective inhibitors of PPP1R15B prior to this study.

For series [2], the system named is eIF2α phosphorylation. The series can be described thus: Assay 5: eIF2α phosphorylation during stress-recovery (DTT wash out). Format: cell-based. The conditions noted are these: 30 minute 1 mM DTT and wash out, before R15A is expressed. How it is done:
as §1, §2
The inventors reasoned that a PPP1R15B inhibitor should prolong eIF2α phosphorylation following stress. […] The inventors took advantage of the fast kinetic and reversibility of stress induction by DTT (Bertolotti et al., Nat. Cell. Biol., 2, 326-332, 2000; Jousse et al., 2003) and monitored eIF2α phosphorylation in cells following a 30 minute treatment with 1 mM DTT and a wash out. […]

Series [3] in a line: Tissue distribution in mice after oral gavage. Format: in vivo. The conditions noted are these: plasma, brain, spinal cord, pancreas, liver.

These results are taken from patent US11154519B2, “Inhibitors and their uses” (MEDICAL RESEARCH COUNCIL, priority 2015, dated 2021).

For `[H]/N=C(\N)NN=Cc1cccc(Cl)c1Cl` [Compound 16, (E)-2-(2,3-dichlorobenzylidene)hydrazine-1-carboximidamide], the “protection of cells from stress (cell viability)” value with HeLa cells is recorded as “protects cells from cytotoxic stress caused by tunicamycin”. The eIF2α phosphorylation result in the series on eIF2α phosphorylation [1] (10 hours after addition) is reported as “returned to basal levels”; in the series on eIF2α phosphorylation [1] (between 1 and 7.5 hours after addition), “induced eIF2α phosphorylation”. For the same molecule, the motor performances entry in the series with HD-N171-82Q mice is listed as “prevented the motor performances impairment”. The “expression of PPP1R15A in cells” value in the series on PPP1R15A is reported as “induce PPP1R15A”. The “eIF2α phosphorylation following stress” value with eIF2α phosphorylation [2] is “prolongs eIF2⊐ phosphorylation following stress”. Also, the tissue distribution entry in series [3] is reported as “extensive tissue distribution”.
